Measured values as given in PubChem BioAssay (NCI).
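Exposure lasted 48 hours, with cells grown in 96-well plates and compounds tested at five concentrations. GI50 marks 50% less growth. At the TGI there is no net growth.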

Experiments:
Assay in all cases: NCI anticancer screen, dose series, 48 h
[1] = tested on: U251 CNS
[2] = tested on: MDA-MB-435
[3] = tested on: OVCAR-8 ovarian
[4] = tested on: SR leukemia
[5] = tested on: T-47D breast
[6] = tested on: LOX IMVI melanoma
[7] = tested on: DU-145 prostate
[8] = tested on: RXF 393 renal
[9] = tested on: HOP-92 NSCLC
[10] = tested on: COLO 205 colon
[11] = tested on: HCC-2998 colon
[12] = tested on: MDA-MB-468 breast
[13] = tested on: HS 578T breast
[14] = tested on: NCI-H460 lung
[15] = tested on: M14 melanoma
[16] = tested on: SK-MEL-28 melanoma
[17] = tested on: SF-268 CNS
[18] = tested on: OVCAR-5 ovarian
[19] = tested on: HL-60(TB) leukemia
[20] = tested on: TK-10 renal
[21] = tested on: SW-620 colon
[22] = tested on: MDA-MB-231 breast
[23] = tested on: NCI/ADR-RES ovarian
[24] = tested on: SF-295 CNS
[25] = tested on: BT-549 breast
[26] = tested on: OVCAR-3 ovarian
[27] = tested on: MALME-3M melanoma
[28] = tested on: 786-0 renal
[29] = tested on: MCF7 breast
[30] = tested on: OVCAR-4 ovarian
[31] = tested on: HCT-15 colon
[32] = tested on: SNB-19 CNS
[33] = tested on: CCRF-CEM leukemia
[34] = tested on: HT29 colon
[35] = tested on: SK-OV-3 ovarian
[36] = tested on: RPMI-8226 leukemia
[37] = tested on: UO-31 renal
[38] = tested on: K-562 leukemia
[39] = tested on: NCI-H226 lung
[40] = tested on: SK-MEL-2 melanoma
[41] = tested on: IGROV1 ovarian
[42] = tested on: A549 NSCLC
[43] = tested on: MOLT-4 leukemia
[44] = tested on: SNB-75 CNS
[45] = tested on: SK-MEL-5 melanoma
[46] = tested on: SN12C renal
[47] = tested on: HCT-116 colon
[48] = tested on: EKVX NSCLC
[49] = tested on: HOP-62 NSCLC
[50] = tested on: UACC-62 melanoma
[51] = tested on: CAKI-1 renal
[52] = tested on: SF-539 CNS
[53] = tested on: A498 renal
[54] = tested on: PC-3 prostate
[55] = tested on: KM12 colon
[56] = tested on: UACC-257 melanoma
[57] = tested on: NCI-H23 lung
[58] = tested on: ACHN renal
[59] = tested on: NCI-H522 lung

In the case of `COc1ccc(N=Nc2c(N)nn3c(-c4cc5cc(Br)ccc5oc4=O)ccnc23)cc1`, the GI50 [1] is reported as 1.89 µM, the TGI [1] is reported as 4.24 µM and the GI50 [2] is reported as 7.87 µM. For the same compound, the TGI [2] was > 100 µM, the GI50 [3] was 2.93 µM and the TGI [3] was 11.1 µM. For the same compound, the GI50 [4] was 99.7 µM, the TGI [4] was > 100 µM and the GI50 [5] was 3.12 µM. The TGI [5] was 13.5 µM, the GI50 [6] was 4.72 µM and the TGI [6] was 16.4 µM. For the same compound, the GI50 [7] was 5.43 µM, the TGI [7] was > 100 µM and the GI50 [8] was 2.34 µM. For the same compound, the TGI [8] was 7 µM, the GI50 [9] was 2.48 µM and the TGI [9] was 7.25 µM. For the same compound, the GI50 [10] was 6.15 µM, the TGI [10] was 52.3 µM and the GI50 [11] was 4.63 µM. The TGI [11] was 23.6 µM, the GI50 [12] was 1.86 µM and the TGI [12] was 6.2 µM. For the same compound, the GI50 [13] was 3.08 µM, the TGI [13] was > 100 µM and the GI50 [14] was 2.96 µM. For the same compound, the TGI [14] was 11.1 µM, the GI50 [15] was 12.5 µM and the TGI [15] was > 100 µM. For the same compound, the GI50 [16] was 4.78 µM, the TGI [16] was 19 µM and the GI50 [17] was 3.72 µM. The TGI [17] was 20 µM, the GI50 [18] was 4.86 µM and the TGI [18] was 33.8 µM. For the same compound, the GI50 [19] was > 100 µM, the TGI [19] was > 100 µM and the GI50 [20] was 7.89 µM. For the same compound, the TGI [20] was 24.8 µM, the GI50 [21] was 5.86 µM and the TGI [21] was 59.6 µM. The GI50 [22] was 2.9 µM, the TGI [22] was 10.1 µM and the GI50 [23] was 3.42 µM. It also gave a TGI [23] of 13.1 µM, a GI50 [24] of 2.7 µM and a TGI [24] of 8.53 µM. The GI50 [25] was 4.38 µM, the TGI [25] was 14.8 µM and the GI50 [26] was 3.85 µM. For the same compound, the TGI [26] was > 100 µM, the GI50 [27] was 3 µM and the TGI [27] was 11.6 µM. It also gave a GI50 [28] of 2.36 µM, a TGI [28] of 5.9 µM and a GI50 [29] of 3.5 µM. It also gave a TGI [29] of 16.4 µM, a GI50 [30] of 3.69 µM and a TGI [30] of 19.3 µM. It also gave a GI50 [31] of 4.63 µM, a TGI [31] of 79.8 µM and a GI50 [32] of 4.05 µM. For the same compound, the TGI [32] was 16.3 µM, the GI50 [33] was > 100 µM and the TGI [33] was > 100 µM. For the same compound, the GI50 [34] was 3.51 µM, the TGI [34] was > 100 µM and the GI50 [35] was 3.67 µM. For the same compound, the TGI [35] was 10.7 µM, the GI50 [36] was 10.9 µM and the TGI [36] was > 100 µM. The GI50 [37] was 3.33 µM, the TGI [37] was 15.4 µM and the GI50 [38] was 11.1 µM. The TGI [38] was > 100 µM, the GI50 [39] was 3.72 µM and the TGI [39] was 14.5 µM. It also gave a GI50 [40] of 4.01 µM, a TGI [40] of 18.2 µM and a GI50 [41] of 6.28 µM. For the same compound, the TGI [41] was 22.8 µM, the GI50 [42] was 3.7 µM and the TGI [42] was 16.9 µM. The GI50 [43] was > 100 µM, the TGI [43] was > 100 µM and the GI50 [44] was 1.73 µM. For the same compound, the TGI [44] was 5.34 µM, the GI50 [45] was 3.56 µM and the TGI [45] was 13.6 µM. The GI50 [46] was 3.21 µM, the TGI [46] was 14.1 µM and the GI50 [47] was 3.69 µM. The TGI [47] was 12.4 µM, the GI50 [48] was 9.79 µM and the TGI [48] was 35.5 µM. The GI50 [49] was 2.09 µM, the TGI [49] was 5.21 µM and the GI50 [50] was 2.98 µM. The TGI [50] was 12.1 µM, the GI50 [51] was 3.47 µM and the TGI [51] was 15.5 µM. It also gave a GI50 [52] of 2.54 µM, a TGI [52] of 6.26 µM and a GI50 [53] of 2.64 µM. The TGI [53] was 9.09 µM, the GI50 [54] was 4.56 µM and the TGI [54] was 71.5 µM. For the same compound, the GI50 [55] was 4.17 µM, the TGI [55] was > 100 µM and the GI50 [56] was 7.3 µM. For the same compound, the TGI [56] was 32 µM, the GI50 [57] was 2.98 µM and the TGI [57] was 10.1 µM. The GI50 [58] was 2.52 µM, the TGI [58] was 7.17 µM and the GI50 [59] was 2.07 µM. It also gave a TGI [59] of 6.43 µM.
`O=c1[nH]c2ccc(Cl)cc2cc1CSc1ccc(Nc2nccc(-c3ccc(Cl)cc3)n2)cc1` gave a GI50 [1] of 16.5 µM, a TGI [1] of 36.1 µM and a GI50 [2] of 15.3 µM. The TGI [2] was 40.9 µM, the GI50 [3] was 23.4 µM and the TGI [3] was 72.6 µM. For the same compound, the GI50 [4] was 69.5 µM, the TGI [4] was > 100 µM and the GI50 [5] was 29.6 µM. For the same compound, the TGI [5] was > 100 µM, the GI50 [6] was 20.6 µM and the TGI [6] was 60.9 µM. The GI50 [7] was 15.1 µM, the TGI [7] was 61.7 µM and the GI50 [8] was 12 µM. The TGI [8] was 26.4 µM, the GI50 [9] was 15.9 µM and the TGI [9] was 38.3 µM. For the same compound, the GI50 [10] was 40.5 µM, the TGI [10] was > 100 µM and the GI50 [11] was 25.3 µM. The TGI [11] was > 100 µM, the GI50 [12] was 10.6 µM and the TGI [12] was 25.3 µM. It also gave a GI50 [13] of 17.3 µM, a TGI [13] of 52 µM and a GI50 [14] of 6.2 µM. For the same compound, the TGI [14] was 25.5 µM, the GI50 [15] was 19.1 µM and the TGI [15] was 50.5 µM. For the same compound, the GI50 [16] was 22.6 µM, the TGI [16] was 72.3 µM and the GI50 [17] was 15.3 µM. The TGI [17] was 40.1 µM, the GI50 [18] was 57.8 µM and the TGI [18] was > 100 µM. For the same compound, the GI50 [19] was 42.9 µM, the TGI [19] was > 100 µM and the GI50 [20] was 18.6 µM. It also gave a TGI [20] of 36.2 µM, a GI50 [21] of 4.42 µM and a TGI [21] of 20 µM. It also gave a GI50 [22] of 12.4 µM, a TGI [22] of 28 µM and a GI50 [23] of 14.8 µM. The TGI [23] was 42 µM, the GI50 [24] was 17.6 µM and the TGI [24] was 36.9 µM. The GI50 [25] was 15.5 µM, the TGI [25] was 31.8 µM and the GI50 [26] was 19.1 µM. It also gave a TGI [26] of 37.1 µM, a GI50 [27] of 19.1 µM and a TGI [27] of 50.1 µM. For the same compound, the GI50 [28] was 17.4 µM, the TGI [28] was 34.3 µM and the GI50 [29] was 5.65 µM. For the same compound, the TGI [29] was 28.5 µM, the GI50 [30] was 16.9 µM and the TGI [30] was 51 µM. It also gave a GI50 [31] of 6.64 µM, a TGI [31] of 24.5 µM and a GI50 [32] of 15.8 µM. The TGI [32] was 31.5 µM, the GI50 [33] was 13.4 µM and the TGI [33] was > 100 µM. For the same compound, the GI50 [34] was 13.8 µM, the TGI [34] was > 100 µM and the GI50 [35] was 18.7 µM. For the same compound, the TGI [35] was 39 µM, the GI50 [36] was 86.6 µM and the TGI [36] was > 100 µM. The GI50 [37] was 29 µM, the TGI [37] was > 100 µM and the GI50 [38] was 15.8 µM. The TGI [38] was > 100 µM, the GI50 [39] was 16.5 µM and the TGI [39] was 45.1 µM. For the same compound, the GI50 [40] was 20 µM, the TGI [40] was 43 µM and the GI50 [41] was 22.7 µM. The TGI [41] was 52.5 µM, the GI50 [42] was 16.9 µM and the TGI [42] was 41.2 µM. For the same compound, the GI50 [43] was 13.5 µM, the TGI [43] was > 100 µM and the GI50 [44] was 11.4 µM. It also gave a TGI [44] of 29.7 µM, a GI50 [45] of 25.5 µM and a TGI [45] of 99.2 µM. The GI50 [46] was > 100 µM, the TGI [46] was > 100 µM and the GI50 [47] was 10.6 µM. For the same compound, the TGI [47] was 26.7 µM, the GI50 [48] was 28.1 µM and the TGI [48] was > 100 µM. The GI50 [49] was 16.5 µM, the TGI [49] was 31.7 µM and the GI50 [50] was 19.6 µM. For the same compound, the TGI [50] was 45.4 µM, the GI50 [51] was 15.6 µM and the TGI [51] was 38.4 µM. It also gave a GI50 [52] of 15.1 µM, a TGI [52] of 31.1 µM and a GI50 [53] of 20 µM. It also gave a TGI [53] of 43.7 µM, a GI50 [54] of 9.22 µM and a TGI [54] of 27.8 µM. The GI50 [55] was 30.5 µM, the TGI [55] was > 100 µM and the GI50 [56] was > 100 µM. For the same compound, the TGI [56] was > 100 µM, the GI50 [57] was 15.3 µM and the TGI [57] was 30 µM. It also gave a GI50 [58] of 22 µM, a TGI [58] of 56.1 µM and a GI50 [59] of 20.1 µM. For the same compound, the TGI [59] was 51.7 µM.
